“Also recorded” adds a separate entry of the source.
Experiments:
[1] = test system: Influenza virus strain A/Goose/Dalian/3/2001 (H9N2); type: cell-based, avian influenza virus H9N2
MDCK cells = conditions: dog
[2] = test system: avian influenza virus H9N2; type: cell-based
[3] = test system: Influenza virus strain A/Goose/Dalian/3/2001 (H9N2); type: cell-based, avian influenza virus H9N2; remark: listed apart in the source
enterovirus 71 [4] = conditions: enterovirus 71 on rhabdomyosarcoma cells; cited from earlier work
enterovirus 71 [5] = conditions: mice challenged with a lethal dose of enterovirus 71; cited from earlier work
Kunming mice = conditions: cited from earlier work

CCOC(=O)C1=C[C@@H](OC(CC)CC)[C@H](NC(C)=O)[C@@H](N)C1 [OS (template), Oseltamivir]
Activity: HI [1]: No hemagglutination (H) was found in all tested groups at 24, 48 or 72 h. | TCD0 (maximum non-toxic concentration) (MDCK cells): 0.5 mg/mL | Activity (see Table 1) qualitative [2]: 1 | Activity (see Table 1) semi-quantitative [2]: 3 | Activity against H9N2 in vitro (in words) [2]: had activity of alleviating CPE and HI against H9N2 in vitro | Activity: CPE [3]: The CPE of 0.5mg/ml OS-treated group was more severe than viral control group within 48 h. The CPE of groups 0.25, 0.125 and 0.0625 mg/ml were milder than viral control at 72 h.

CC(=O)Oc1ccccc1C(=O)O [aspirin]
Activity: HI [1]: No differences between all treatment and control groups. | TCD0 (maximum non-toxic concentration) (MDCK cells): >0.5 mg/mL | Activity (see Table 1) qualitative [2]: 0 | Activity (see Table 1) semi-quantitative [2]: 0 | Activity: CPE [3]: No differences between all treatment and control groups.

O=C(/C=C/c1ccc(O)c(O)c1)O[C@@H]1C[C@](O)(C(=O)O)C[C@@H](O)[C@H]1O [chlorogenic acid]
Activity: HI [1]: No differences between all treatment and control groups. | TCD0 (maximum non-toxic concentration) (MDCK cells): 0.016 mg/mL | Activity (see Table 1) qualitative [2]: 0 | Activity (see Table 1) semi-quantitative [2]: 0 | Activity: CPE [3]: No differences between all treatment and control groups.

O=C1CCC[C@@H]2[C@H]3CCCN4CCC[C@@H](CN12)[C@@H]34 [matrine]
viral RNA copy number (enterovirus 71 [4]): could suppress the viral RNA copy number on rhabdomyosarcoma cells | Activity: HI [1]: There was no H in 0.2 mg/ml matrine-treated group at 24 h and in 0.4mg/ml matrine-treated group at 24 or 48 h. | TCD0 (maximum non-toxic concentration) (MDCK cells): 0.4 mg/mL | Activity (see Table 1) qualitative [2]: 1 | Activity (see Table 1) semi-quantitative [2]: 3 | Activity against H9N2 in vitro (in words) [2]: had activity of alleviating CPE and HI against H9N2 in vitro and high | Activity: CPE [3]: could protect MDCK cells from H9N2 in a dose-dependent manner; also recorded: The CPE of 0.4, 0.2 and 0.1 mg/ml matrine groups were milder than that of the viral control group | mortality and clinical symptoms (enterovirus 71 [5]): reduced the mortality and relieved clinical symptoms | LD50 (Kunming mice; Kunming mice, acute toxicity, 95% confidence limit 88.08-280.31 mg/kg): 157.13 mg/kg | tolerable dose (Kunming mice; Kunming mice, acute toxicity): above 80 mg/kg | Morphological observation (Kunming mice; brain tissue of mice): degenerative changes of the nerve cells in the brain tissue of the mice

O=C1CCC[C@@H]2[C@H]3CCC[N+]4([O-])CCC[C@@H](CN12)[C@@H]34 (stereo partly shown) [oxymatrine]
Activity: HI [1]: No differences between all treatment and control groups. | TCD0 (maximum non-toxic concentration) (MDCK cells): >2 mg/mL | Activity (see Table 1) qualitative [2]: 0 | Activity (see Table 1) semi-quantitative [2]: 0 | Activity against H9N2 in vitro (in words) [2]: did not show any similar bioactivities | Activity: CPE [3]: No differences between all treatment and control groups.

O=C1CCC[C@@H]2[C@H]3CCC[N+]4([O-])CCC[C@H](CN12)[C@@H]34 (stereo partly shown) [oxysophoridine]
Activity: HI [1]: No differences between all treatment and control groups | TCD0 (maximum non-toxic concentration) (MDCK cells): >2 mg/mL | Activity (see Table 1) qualitative [2]: 0 | Activity (see Table 1) semi-quantitative [2]: 0 | Activity against H9N2 in vitro (in words) [2]: did not show any similar bioactivities | Activity: CPE [3]: No differences between all treatment and control groups

O=C1CCC[C@@H]2[C@H]3CCCN4CCC[C@H](CN12)[C@@H]34 [sophoridine]
Activity: HI [1]: had HI activity only at concentration of TCD0; also recorded: There was no H of 2 mg/ml sophoridine-treated group at any test time points. But the rest test groups had H at all test time points | TCD0 (maximum non-toxic concentration) (MDCK cells): >2 mg/mL | Activity (see Table 1) qualitative [2]: 1 | Activity (see Table 1) semi-quantitative [2]: 1 | Activity against H9N2 in vitro (in words) [2]: low | Activity: CPE [3]: The CPE of 2 mg/ml sophoridine-treated group was more severe than that of the viral control at 48 h. The CPE of other test groups with low concentration were consistent with that of the viral control at 48 h.

phillyrin
Activity: HI [1]: had HI activity; also recorded: There was no H in 0.25 mg/ml phillyrin-treated group at 24 h and in 0.5mg/ml phillyrin-treated group at 24 or 48 h | Activity (see Table 1) qualitative [2]: 1 | Activity (see Table 1) semi-quantitative [2]: 1 | Activity: CPE [3]: could not alleviate CPE; also recorded: The CPE of 0.5 and 0.25 mg/ml phillyrin-treated groups were more severe than that of the viral control group within 48 h

Source: article PMC3873415, “A Non-Biological Method for Screening Active Components against Influenza Virus from Traditional Chinese Medicine by Coupling a LC Column with Oseltamivir Molecularly Imprinted Polymers” (PLoS ONE, 2013)
